Measurements published in patent US9902733B2, “Furopyridines as inhibitors of protein kinases” (MASARYKOVA UNIVERZITA, priority 2014, dated 2018).

Experiments:
[1] = target: T1, DYRK2 (Homo sapiens, UniProt Q92630); assay: DYRK2 KinaseProfiler radiometric protein kinase assay; assay type: biochemical
T1 construct: purchased Merck Millipore (KinaseProfiler service)
T1 sequence (Q92630 1-601): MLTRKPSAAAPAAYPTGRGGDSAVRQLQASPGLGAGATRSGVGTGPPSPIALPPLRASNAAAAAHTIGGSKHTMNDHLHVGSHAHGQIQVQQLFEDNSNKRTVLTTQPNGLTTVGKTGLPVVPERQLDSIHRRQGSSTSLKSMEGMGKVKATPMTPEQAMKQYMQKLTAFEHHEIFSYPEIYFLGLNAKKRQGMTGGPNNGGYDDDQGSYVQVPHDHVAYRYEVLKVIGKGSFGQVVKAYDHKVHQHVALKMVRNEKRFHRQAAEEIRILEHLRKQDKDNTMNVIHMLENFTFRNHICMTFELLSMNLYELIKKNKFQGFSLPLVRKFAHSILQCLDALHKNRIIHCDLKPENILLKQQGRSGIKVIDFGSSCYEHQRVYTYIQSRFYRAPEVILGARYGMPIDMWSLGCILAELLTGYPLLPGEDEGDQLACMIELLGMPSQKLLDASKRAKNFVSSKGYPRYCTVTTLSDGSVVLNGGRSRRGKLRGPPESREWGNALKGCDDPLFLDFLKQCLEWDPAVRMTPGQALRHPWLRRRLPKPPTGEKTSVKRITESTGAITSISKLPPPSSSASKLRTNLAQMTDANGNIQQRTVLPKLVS
Description: (§1) In vitro essays were performed by the company Merck Millipore in their KinaseProfiler radiometric protein kinase assay as paid commercial service. The compounds IC50 values for inhibition of individual protein kinases were determined. Dose-response curves were plotted from inhibition data generated, each in duplicate, from 10 point serial dilutions of inhibitory compounds. Concentration of compound was plotted against % kinase activity. To generate IC50 values, the dose-response curves were fitted to a standard sigmoidal curve and IC50 values were derived by standard nonlinear regression analysis.
(§2) All tested compounds were prepared in 100% DMSO to final assay concentrations either 0.5 mM (for the concentration row A, see below) or 0.05 mM (for the concentration row B). This working stock of the compound was added to the assay well as the first component in the reaction, followed by the remaining components as detailed below. The stock solution was added to the individual assay wells in such amounts that the concentrations of the compound were either in the row A (0.001 μM, 0.003 μM, 0.01 μM, 0.03 μM, 0.1 μM, 0.3 μM, 1.0 μM, 3.0 μM, and 10.0 μM) or in the row B (0.0001 μM, 0.0003 μM, 0.001 μM, 0.003 μM, 0.01 μM, 0.03 μM, 0.1 μM, 0.3 μM, and 1.0 μM). There was no pre-incubation step between the compound and the kinase prior to initiation of the reaction.
(§3) The positive control wells contained all components of the reaction, except the compound of interest; however, DMSO (at a final concentration of 2%) was included in these wells to control for solvent effects. The blank wells contained all components of the reaction, with staurosporine as a reference inhibitor replacing the compound of interest. This abolished kinase activity and established the base-line (0% kinase activity remaining).

[2] = target: T2, HIPK3(h) (Homo sapiens, UniProt Q9H422); assay: HIPK3 KinaseProfiler radiometric protein kinase assay; assay type: biochemical; conditions: 15 μM ATP, 40 minutes at room temperature
T2 construct: purchased Merck Millipore (KinaseProfiler service)
T2 sequence (Q9H422 whole entry): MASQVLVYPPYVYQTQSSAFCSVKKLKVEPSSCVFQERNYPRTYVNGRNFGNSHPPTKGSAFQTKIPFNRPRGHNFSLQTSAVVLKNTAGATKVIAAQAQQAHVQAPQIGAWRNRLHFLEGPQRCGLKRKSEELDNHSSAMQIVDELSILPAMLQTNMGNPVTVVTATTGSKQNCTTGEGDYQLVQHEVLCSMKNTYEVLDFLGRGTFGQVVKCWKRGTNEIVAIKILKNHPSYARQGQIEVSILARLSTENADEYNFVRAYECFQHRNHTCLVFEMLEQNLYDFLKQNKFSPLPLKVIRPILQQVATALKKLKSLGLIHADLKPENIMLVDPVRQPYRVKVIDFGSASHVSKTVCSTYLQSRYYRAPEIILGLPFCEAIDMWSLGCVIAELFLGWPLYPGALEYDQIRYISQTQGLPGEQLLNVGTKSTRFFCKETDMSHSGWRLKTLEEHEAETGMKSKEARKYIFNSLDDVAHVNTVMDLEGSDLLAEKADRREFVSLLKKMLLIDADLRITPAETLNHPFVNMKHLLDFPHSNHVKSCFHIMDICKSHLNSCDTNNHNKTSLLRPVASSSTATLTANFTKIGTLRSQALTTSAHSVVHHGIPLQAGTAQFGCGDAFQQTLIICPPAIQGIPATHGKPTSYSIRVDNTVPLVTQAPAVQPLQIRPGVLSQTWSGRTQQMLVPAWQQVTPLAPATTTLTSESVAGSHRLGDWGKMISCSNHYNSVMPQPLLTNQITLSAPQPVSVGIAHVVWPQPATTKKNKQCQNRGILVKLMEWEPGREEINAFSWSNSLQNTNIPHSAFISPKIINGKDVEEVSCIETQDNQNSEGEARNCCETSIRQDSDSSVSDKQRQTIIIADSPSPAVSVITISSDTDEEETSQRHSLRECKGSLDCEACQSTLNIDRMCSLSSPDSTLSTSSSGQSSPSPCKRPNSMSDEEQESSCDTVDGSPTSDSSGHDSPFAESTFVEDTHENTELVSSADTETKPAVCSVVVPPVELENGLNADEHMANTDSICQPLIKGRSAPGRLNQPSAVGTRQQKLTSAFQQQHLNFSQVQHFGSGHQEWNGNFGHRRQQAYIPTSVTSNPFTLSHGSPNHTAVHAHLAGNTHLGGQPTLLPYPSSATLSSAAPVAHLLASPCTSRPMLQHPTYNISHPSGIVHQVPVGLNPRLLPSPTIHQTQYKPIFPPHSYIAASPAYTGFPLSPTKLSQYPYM
Description: as §1, §2, §3
HIPK3(h) was diluted in the buffer (20 mM MOPS, 1 mM EDTA, 0.01% Brij-35, 5% Glycerol, 0.1% β-mercaptoethanol, 1 mg/mL BSAs) to the concentration of 1.01 mg/mL prior to addition to the reaction mix.
The above stock solution of HIPK3(h) was added to a mixture containing 8 mM MOPS pH 7.0, 0.2 mM EDTA, and 1.0 mg/mL myelin basic protein in such amount that the resulting concentration of HIPK3(h) was 6.4 nM. This mixture was added to the stock solution of the tested compound. The reaction was initiated by the addition of the MgATP mix in such amount that the resulting concentration of Mg acetate in the reaction mixture was 10 mM and [γ-^33P-ATP] (specific activity approx. 500 cpm/pmol) was 15 μM. After incubation for 40 minutes at room temperature, the reaction was stopped by the addition of 3% phosphoric acid solution. […]

Row | Compound | IC50 [1] [µM] | IC50 [2] [µM]
1 | Cn1cc(-c2ccc3occ(-c4ccccc4)c3n2)cn1 [Preparative Example 6A] | < 5 | < 5
2 | c1ccc(-c2coc3ccc(-c4cn[nH]c4)nc23)cc1 [Preparative Example 9] | < 5 | < 1
